Common to all, as to type: functional
Common to all, as to conditions: read-out: IZ

One test concerns Bacillus subtilis. In words: Antimicrobial activity against Bacillus subtilis ATCC 6051 at 200 ug/disk by standard disk assay.
The test system of the next test is Staphylococcus aureus. In words: Antimicrobial activity against Staphylococcus aureus ATCC 29213 at 200 ug/disk by standard disk assay.
For another test, the system named is Candida albicans. In words: Antimicrobial activity against Candida albicans ATCC 90029 at 250 ug/disk by standard disk assay.

Molecules are shown by their SMILES.

Consider `Cc1cc(=O)c(O)cc2c1C[C@@H](C)[C@@]1(OC[C@@H](C)[C@H]1O)O2` [MALETTININ C], for which the zone of inhibition at 200 µg/disc was 15 mm with Bacillus subtilis and 12 mm with Staphylococcus aureus. The zone of inhibition at 250 µg/disc in the test with Candida albicans was found to be 13 mm.
For `Cc1cc(=O)c(O)cc2c1C[C@@H](C)[C@]1(OC[C@@H](C)[C@H]1O)O2` [MALETTININ B] the same measures were 26 mm, 24 mm and 19 mm.
